According to EP0583821A1, “Atriopeptins, guanylate cyclase activators, and phosphodiesterase inhibitors as treatment for glaucoma, hydrocephalus and cerebral edema (cranial fluid volume dysfunction)” (THE GENERAL HOSPITAL CORPORATION, priority 1987, dated 1988):

Biological target: T1, guanylate cyclase (Oryctolagus cuniculus, UniProt G1TXB5)
T1 sequence (G1TXB5 28-1056): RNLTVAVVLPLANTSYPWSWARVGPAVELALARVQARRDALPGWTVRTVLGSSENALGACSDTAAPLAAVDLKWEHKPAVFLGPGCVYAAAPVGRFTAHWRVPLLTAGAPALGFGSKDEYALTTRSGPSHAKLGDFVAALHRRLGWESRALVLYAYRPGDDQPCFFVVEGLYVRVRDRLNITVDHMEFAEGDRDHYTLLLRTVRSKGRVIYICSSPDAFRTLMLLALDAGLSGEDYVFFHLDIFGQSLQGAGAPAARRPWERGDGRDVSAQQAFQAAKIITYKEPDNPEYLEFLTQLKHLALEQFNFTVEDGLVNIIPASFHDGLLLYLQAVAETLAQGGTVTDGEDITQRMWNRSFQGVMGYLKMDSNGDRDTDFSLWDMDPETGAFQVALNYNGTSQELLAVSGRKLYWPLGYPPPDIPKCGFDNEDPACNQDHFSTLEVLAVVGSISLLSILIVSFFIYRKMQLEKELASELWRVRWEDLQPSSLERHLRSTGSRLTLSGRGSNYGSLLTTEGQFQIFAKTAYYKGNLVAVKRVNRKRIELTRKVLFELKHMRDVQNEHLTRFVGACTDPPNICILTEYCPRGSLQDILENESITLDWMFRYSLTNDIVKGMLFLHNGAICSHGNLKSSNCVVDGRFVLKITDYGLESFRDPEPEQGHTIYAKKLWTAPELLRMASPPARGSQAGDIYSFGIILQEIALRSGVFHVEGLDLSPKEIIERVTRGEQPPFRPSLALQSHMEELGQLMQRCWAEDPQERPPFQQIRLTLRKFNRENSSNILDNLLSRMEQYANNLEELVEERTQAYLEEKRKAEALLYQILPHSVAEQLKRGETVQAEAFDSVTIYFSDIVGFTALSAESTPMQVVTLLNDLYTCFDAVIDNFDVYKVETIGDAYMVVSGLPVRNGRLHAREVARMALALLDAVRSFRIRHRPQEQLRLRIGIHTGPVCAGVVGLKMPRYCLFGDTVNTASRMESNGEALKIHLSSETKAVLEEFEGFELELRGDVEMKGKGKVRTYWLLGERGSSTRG
Assay: Atriopeptin-activated guanylate cyclase in ciliary process membrane (P1) fractions
Type: biochemical, rabbit
Design: tissues were homogenized (10 mg wet weight per milliliter); from tissue; host or cells: rabbit cerebral microvessels, choroid plexus, kidney, ciliary process, pia-arachnoid, cerebellum; 100,000 g P1 pellet
Conditions: mean ± range of duplicate determinations
Experimental: Ciliary process tips were obtained from male, 3-4 kg, New Zealand white rabbits, immediately following sacrifice with an overdose of ether, as described in Nathanson, Invest. Ophthal. Vis. Sci., 21:7981 (1982). The tissue was minced and homogenized (10 mg/ml) by hand in a glass-glass homogenizer in a buffer consisting of 50 mM Tris HCl, pH 8.0; 1mM EDTA, and 250mM sucrose. The homogenate was diluted 30-fold with buffer and centrifuged at 100,000 x g, to obtain a P1 fraction. The pellet was rehomogenized in the original volume and left on ice until use. P1 fractions were also prepared from wedges of rabbit kidney taken from the same animals. In some experiments, P1 fractions were prepared from iris and from ciliary body, as described in Nathanson, Proc. Natl. Acad. Sci. USA, 77:7420 (1980). Briefly, iris was removed from its attachment to the ciliary body, cleaned of adhering ciliary process tissue, washed, and homogenized as above. The ciliary muscle was cleaned of most remaining ciliary process tissue, freed from the underlying sclera by blunt and sharp dissection, and then washed and homogenized.
Atriopeptin-activated guanylate cyclase activity was measured as the rate of conversion of GTP to cyclic GMP. […]
For RIA, each tube contained (in 0.5ml), 50mM sodium acetate buffer (pH 6.2), 2mM EDTA, 1mg/ml bovine serum albumin, 0.1 ml of sample (or diluted sample), 8,000-15,000 cpm (about 5 fmole) of ¹²⁵I succinyl cyclic GMP tyrosine methyl ester, and antibody to bind 25-35% of the label. […] Activation constants (Ka) were determined from dose-response curves utilizing 12-14 data points (6-7 concentrations of hormone, in duplicate), each point representing the mean of triplicate RIA determinations.
Atriopeptin-activated guanylate cyclase activity was measured, as described in Example 5, in membranes from rabbit kidney and ciliary process prepared as in Example 4. […]

| Substance | Vmax Stimulation (%) of Guanylate Cyclase Ciliary Process |
| --- | --- |
| Ser-Leu-Arg-Arg-atriopeptin III (APIII) [rANP 1-28] | 124 ± 5% |
| rANP 13-28 (DRIGAQSGLGCNSFRY; Atrial natriuretic peptide; UniProt P01161 135-150, looked up, fragment) | 51 ± 5% |
